Tested on: Mycobacterium tuberculosis H37Rv (ATCC: 25177)
Test: Anti-tubercular activity, colorimetric Resazurin Microplate Assay (REMA)
Assay type: cell-based
Settings: 192 h, read-out: Anti-tubercular activity against Mycobacterium tuberculosis H37Rv (MIC)

Row | Structure (SMILES) | MIC [µg/mL]
1 | CC(C)OC(=O)c1cc[n+](CC(=O)c2ccc(F)cc2)cc1.[Br-] [Compound 4b, 1-(2-(4-Fluorophenyl)-2-oxoethyl)-4-(isopropoxycarbonyl)pyridin-1-ium bromide] | 1
2 | CC(C)OC(=O)c1cc[n+](CC(=O)c2ccccc2)cc1.[Br-] [Compound 4a, 4-(Isopropoxycarbonyl)-1-(2-oxo-2-phenylethyl)pyridin-1-ium Bromide] | 0.5

Reference: patent publication US11919860B1 (priority 2023, dated 2024)
